Measurements as given in publication PMC8670521, “Identification and characterization of an atypical Gαs-biased β2AR agonist that fails to evoke airway smooth muscle cell tachyphylaxis” (Proceedings of the National Academy of Sciences of the …, 2021).
Read-outs that look alike come from different tables or passages of the source.

Key:
[1] = molecular target: T1, human β2AR (β2-adrenergic receptor) (Homo sapiens, UniProt P07550); assay: cAMP accumulation, competitive immunoassay; type: cell-based
T1 construct: gene ADRB2; full-length receptor cDNA stably expressed in CHW-1102 (CHW-β2) cells, ~2,000 fmol/mg
T1 sequence (P07550 whole entry): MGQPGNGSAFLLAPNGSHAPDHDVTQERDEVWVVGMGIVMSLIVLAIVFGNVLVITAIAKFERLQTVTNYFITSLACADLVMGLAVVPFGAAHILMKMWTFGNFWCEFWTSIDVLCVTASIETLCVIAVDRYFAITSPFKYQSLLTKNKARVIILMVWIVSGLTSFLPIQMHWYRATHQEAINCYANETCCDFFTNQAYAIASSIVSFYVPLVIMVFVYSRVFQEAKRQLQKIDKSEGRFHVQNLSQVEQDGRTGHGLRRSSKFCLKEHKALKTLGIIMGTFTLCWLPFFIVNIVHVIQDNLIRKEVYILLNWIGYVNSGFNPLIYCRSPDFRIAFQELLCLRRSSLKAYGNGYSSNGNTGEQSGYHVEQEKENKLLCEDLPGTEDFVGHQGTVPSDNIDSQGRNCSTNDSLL
Text: cAMP accumulation, competitive immunoassay on human β2AR (β2-adrenergic receptor)

[2] = molecular target: T2, β2AR tagged at its carboxyl terminus (PathHunter ECA) (Homo sapiens, UniProt P07550); assay: β-arrestin2 recruitment, PathHunter enzyme complementation; type: cell-based; details: […] min, […] °C, CHO cells
T2 construct: gene ADRB2; C-terminal complementary β-galactosidase fragment tag; DiscoverX PathHunter CHO cells co-expressing β-arrestin2 fused to fragment-deficient β-galactosidase (read-out)
T2 sequence (P07550 whole entry, the tested form may be a part): as the sequence (P07550 whole entry) above

[3] = agonist, […] min, […] °C, IBMX […], whole CHW-β[…] cells

EC50 [1, 3] | EC50 [1] | Structure (SMILES) | β-arrestin2 recruitment, PathHunter enzyme complementation [2]
6.67 ± 2.01 µM | – | COc1ccc(CC2=N[C@@H](CCCCN3C[C@H](Cc4ccc(O)cc4)N(CCCCC4CCCCC4)C3=O)CN2)cc1OC [C2-S] | –
4.31 ± 1.69 µM | – | CCOc1ccc(CC2=N[C@@H](CCCCN3C[C@H](Cc4ccc(O)cc4)N(CCCCC4CCCCC4)C3=O)CN2)cc1 [C3-S] | –
– | 4.23 ± 1 µM | COc1ccc(CC2=N[C@@H](CCCCN3C[C@H](Cc4ccc(O)cc4)N(CCCCC4CCCCC4)C3=O)CN2)cc1 [C1-S] | lack of a response to C1-S in the β-arrestin ECA

Structure (SMILES) | EC50 [1, 3] | EC50 [1] | β-arrestin2 recruitment, PathHunter enzyme complementation [2]
CC(C)CC1=N[C@@H](CCCCN2C[C@H](Cc3ccc(O)cc3)N(CCCCC3CCCCC3)C2=O)CN1 [C4-S] | 3.52 ± 0.52 µM | – | –
